Source: US11970493B2, “Autotaxin inhibitor compounds” (ILDONG PHARMACEUTICAL CO., LTD., priority 2020, dated 2024)
Structures can show the parent of a compound that is named as a salt.

The compounds below were run against hATX/ENPP2 (Homo sapiens, UniProt Q13822) (assay: hATX/ENPP2 biochemical assay using 16:0-LPC as substrate (Amplex Red/choline oxidase/HRP fluorescence)). Settings: hENPP2 2.5 nM, LPC (16:0) substrate.
Experimental: The enzyme is diluted in 50 mM Tris-HCl pH 8.0, 140 mM NaCl, 5 mM CaCl2, 0.01% Triton X-100 in a total volume of 5 μL. The aqueous solution of enzyme is added to the wells and incubated with different concentrations of the compounds at room temperature for 15 min. The reaction is started by the addition of 5 μL of 80 μM LPC (16:0) and 10 μL of the detection mixture containing 200 μM Amplex Red, 10 U/mL choline oxidase and 4 U/mL HRP. Fluorescence at 590 nm was measured kinetically with excitation at 530 nm. The slope of the curve (from 60 to 70 min of the reaction time) was used to calculate the compounds' IC50 values.

Compound | IC50 [nM]
CCc1nc2ccc(-c3ccc(N4CC(C(=O)NC5(CO)CC5)C4)nc3)cn2c1N(C)c1nc(-c2ccc(F)cc2)c(C#N)s1 [Compound 97, 1-(5-(3-((5-cyano-4-(4-fluorophenyl)thiazol-2-yl)(methyl)amino)-2-ethylimidazo[1,2-a]pyridin-6-yl)pyridin-2-yl)-N-(1-(hydroxymethyl)cyclopropyl)azetidine-3-carboxamide] | 20 to 200
CCc1nc2ccc(-c3ccc(N4CCN(C(=O)NC5CCNCC5)CC4)nc3)cn2c1N(C)c1nc(-c2ccc(F)cc2)c(C#N)s1 [Compound 94, 4-(5-(3-((5-cyano-4-(4-fluorophenyl)thiazol-2-yl)(methyl)amino)-2-ethylimidazo[1,2-a]pyridin-6-yl)pyridin-2-yl)-N-(piperidin-4-yl)piperazine-1-carboxamide] | 20 to 200
CCc1nc2ccc(-c3cnc(N4CC(NC(=O)[C@H]5C[C@@H](O)CN5)C4)nc3)cn2c1N(C)c1nc(-c2ccc(F)cc2)c(C#N)s1 [Compound 25, (2R,4R)—N-(1-(5-(3-((5-cyano-4-(4-fluorophenyl)thiazol-2-yl)(methyl)amino)-2-ethylimidazo[1,2-a]pyridin-6-yl)pyrimidin-2-yl)azetidin-3-yl)-4-hydroxypyrrolidine-2-carboxamide] | 20 to 200
CCc1nc2ccc(-c3cnc(CC(=O)NC4CNC4)nc3)cn2c1N(C)c1nc(-c2ccc(F)cc2)c(C#N)s1 [Compound 63, N-(azetidin-3-yl)-2-(5-(3-((5-cyano-4-(4-fluorophenyl)thiazol-2-yl)(methyl)amino)-2-ethylimidazo[1,2-a]pyridin-6-yl)pyrimidin-2-yl)acetamide] | > 200
CCc1nc2ccc(-c3cnc(N4CC(NC(=O)C5(O)CC5)C4)nc3)cn2c1N(C)c1nc(-c2ccc(F)cc2)c(C#N)s1 [Compound 31, N-(1-(5-(3-((5-cyano-4-(4-fluorophenyl)thiazol-2-yl)(methyl)amino)-2-ethylimidazo[1,2-a]pyridin-6-yl)pyrimidin-2-yl)azetidin-3-yl)-1-hydroxycyclopropane-1-carboxamide] | 20 to 200
CCc1nc2ccc(-c3cnc(CC(=O)NC4CC4)nc3)cn2c1N(C)c1nc(-c2ccc(F)cc2)c(C#N)s1 [Compound 62, 2-(5-(3-((5-cyano-4-(4-fluorophenyl)thiazol-2-yl)(methyl)amino)-2-ethylimidazo[1,2-a]pyridin-6-yl)pyrimidin-2-yl)-N-cyclopropyl acetamide] | 20 to 200
CCc1nc2ccc(-c3cnc(C(=O)NC4(C#N)CC4)nc3)cn2c1N(C)c1nc(-c2ccc(F)cc2)c(C#N)s1 [Compound 16, 5-(3-((5-cyano-4-(4-fluorophenyl)thiazol-2-yl)(methyl)amino)-2-ethylimidazo[1,2-a]pyridin-6-yl)-N-(1-cyanocyclopropyl)pyrimidine-2-carboxamide] | 20 to 200
CCc1nc2ccc(-c3cnc(C(=O)N4CC(O)C4)nc3)cn2c1N(C)c1nc(-c2ccc(F)cc2)c(C#N)s1 [Compound 11, 2-((2-ethyl-6-(2-(3-hydroxyazetidine-1-carbonyl)pyrimidin-5-yl)imidazo[1,2-a]pyridin-3-yl)(methyl)amino)-4-(4-fluorophenyl)thiazole-5-carbonitrile] | 20 to 200
CCc1nc2ccc(-c3cnc(C(=O)N4CC[C@@H](O)C4)nc3)cn2c1N(C)c1nc(-c2ccc(F)cc2)c(C#N)s1 [Compound 49, (R)-2-((2-ethyl-6-(2-(3-hydroxypyrrolidine-1-carbonyl)pyrimidin-5-yl)imidazo[1,2-a]pyridin-3-yl)(methyl)amino)-4-(4-fluorophenyl) thiazole-5-carbonitrile] | 20 to 200
CCc1nc2ccc(-c3cnc(N4CCN(C(=O)C5CN(C6CC6)C5)CC4)nc3)cn2c1N(C)c1nc(-c2ccc(F)cc2)c(C#N)s1 [Compound 111, 2-((6-(2-(4-(1-cyclopropylazetidine-3-carbonyl)piperazin-1-yl)pyrimidin-5-yl)-2-ethylimidazo[1,2-a]pyridin-3-yl)(methyl)amino)-4-(4-fluorophenyl)thiazole-5-carbonitrile] | 20 to 200

Results, then the compound that gave them:

IC50 [nM] | Compound
≤ 20 | CCc1nc2ccc(-c3cnc(N4CCC(NC(=O)C5(O)CC5)CC4)nc3)cn2c1N(C)c1nc(-c2ccc(F)cc2)c(C#N)s1 [Compound 19, N-(1-(5-(3-((5-cyano-4-(4-fluorophenyl)thiazol-2-yl)(methyl)amino)-2-ethylimidazo[1,2-a]pyridin-6-yl)pyrimidin-2-yl)piperidin-4-yl)-1-hydroxycyclopropane-1-carboxamide]
≤ 20 | CCc1nc2ccc(-c3ccc(N4CCC(NC5CCNCC5)CC4)nc3)cn2c1N(C)c1nc(-c2ccc(F)cc2)c(C#N)s1 [Compound 90, 2-((2-ethyl-6-(6-(4-(piperidin-4-ylamino)piperidin-1-yl)pyridin-3-yl)imidazo[1,2-a]pyridin-3-yl)(methyl)amino)-4-(4-fluorophenyl)thiazole-5-carbonitrile]
≤ 20 | CCc1nc2ccc(-c3cnc(N4CCN(CC(=O)N5CC[C@H](O)C5)CC4)nc3)cn2c1N(C)c1nc(-c2ccc(F)cc2)c(C#N)s1 [Compound 46, (S)-2-((2-ethyl-6-(2-(4-(2-(3-hydroxypyrrolidin-1-yl)-2-oxoethyl)piperazin-1-yl)pyrimidin-5-yl)imidazo[1,2-a]pyridin-3-yl)(methyl)amino)-4-(4-fluorophenyl)thiazole-5-carbonitrile]
≤ 20 | CCc1nc2ccc(-c3cnc(N4CCN(C(=O)[C@H]5C[C@H](O)CN5)CC4)nc3)cn2c1N(C)c1nc(-c2ccc(F)cc2)c(C#N)s1 [Compound 8, 2-((2-ethyl-6-(2-(4-((2R,4S)-4-hydroxypyrrolidine-2-carbonyl)piperazin-1-yl)pyrimidin-5-yl)imidazo[1,2-a]pyridin-3-yl)(methyl)amino)-4-(4-fluorophenyl)thiazole-5-carbonitrile]
≤ 20 | CCc1nc2ccc(-c3cnc(N4CCN(C(=O)[C@@H]5C[C@@H](O)CN5C)CC4)nc3)cn2c1N(C)c1nc(-c2ccc(F)cc2)c(C#N)s1 [Compound 78, 2-((2-ethyl-6-(2-(4-((2S,4R)-4-hydroxy-1-methylpyrrolidine-2-carbonyl)piperazin-1-yl)pyrimidin-5-yl)imidazo [1,2-a]pyridin-3-yl)(methyl)amino)-4-(4-fluorophenyl)thiazole-5-carbonitrile]
≤ 20 | CCc1nc2ccc(-c3ccc(N4CCC(NC5CNC5)CC4)nc3)cn2c1N(C)c1nc(-c2ccc(F)cc2)c(C#N)s1 [Compound 89 hydrochloride, 2-((6-(6-(4-(azetidin-3-ylamino)piperidin-1-yl)pyridin-3-yl)-2-ethylimidazo[1,2-a]pyridin-3-yl)(methyl)amino)-4-(4-fluorophenyl)thiazole-5-carbonitrile hydrochloride]
≤ 20 | CCc1nc2ccc(-c3ccc(N4CCN(C(=O)[C@@H]5C[C@@H](O)CN5)CC4)nc3)cn2c1N(C)c1nc(-c2ccc(F)cc2)c(C#N)s1 [Compound 95, 2-((2-ethyl-6-(6-(4-((2S,4R)-4-hydroxypyrrolidine-2-carbonyl)piperazin-1-yl)pyridin-3-yl)imidazo[1,2-a]pyridin-3-yl)(methyl)amino)-4-(4-fluorophenyl)thiazole-5-carbonitrile]
